{"source": "patent US20080187585A1", "about": "“Prolonged-Release Compositions Comprising Torasemide and a Matrix-Forming Polymer” (FERRER INTERNACIONAL S.A., priority 2004, published 2008)", "origin": "cited, not measured here", "key": {"[1]": {"test": "not given", "remark": "listed apart in the source"}}}
{"compound": "Cc1cccc(Nc2ccncc2S(=O)(=O)NC(=O)NC(C)C)c1", "note": "[torasemide, Torasemide]", "values": [{"measurement": "bioavailability", "setting": "after oral administration", "value": "80-90%"}, {"measurement": "kinetics", "setting": "oral administration", "value": "linear"}, {"measurement": "elimination half-life (t1/2)", "setting": "oral administration, man", "value": "3 to 4", "unit": "h"}, {"measurement": "tmax (time to maximum plasma concentration)", "setting": "oral administration, man", "value": "approximately 1 hour"}, {"measurement": "time of maximal effects on urine and electrolytes excretions", "setting": "[1]; after oral administration", "value": "approximately 2 hours"}, {"measurement": "dose-response relationship for urinary volume", "setting": "[1]; doses from 2.5 to 20 mg", "value": "linear dose-response relationship"}]}
